Assay results: patent publication US20030166213A1, “Methods for identifying compounds that modulate disorders related to nitric oxide/ cGMP-dependent protein kinase signaling” (priority 2000, published 2003)
“Also recorded” adds a separate entry of the source.

Tested on: Drosophila melanogaster
Experiment: Effects of methylphenidate on rest (sleep) in flies, Drosophila Activity Monitoring System
Format: in vivo
Settings: wild-type Canton-S virgin female flies; 0.5 mg/ml methylphenidate dissolved in the food; transferred two hours before lights-off; rest over the following 14 hours vs baseline; p<0.05
Protocol: Wild-type Canton-S (CS) flies were placed into a 50 ml vial containing yeast, dark corn syrup and agar food. Each colony was housed at 25° C. with a relative humidity of 50% in a Forma Scientific incubator. The flies were maintained on a 12:12 light/dark cycle with “lights-on” commencing at 8:00 am and “lights-off” commencing at 8:00 pm to yield darkness. Virgin females were collected and maintained in 50 ml vials for one day. During the second day, flies were individually placed into glass tubes (65 mm in length, 5 mm I.D.) containing about lomm of fresh food and the tubes were placed into the Drosophila Activity Monitoring System (Trikinetics, Waltham, Mass.). The flies remained undisturbed for the following 48 hours. The amount and distribution of rest was evaluated during the third day to ensure that the flies had adapted to the apparatus as previously described in Shaw et. al., Science 287:1834-1837 (2000). On day 4, two hours before lights-off, flies were transferred to fresh glass tubes containing only standard laboratory food or to tubes with 0.5 mg/ml methylphenidate that had been dissolved in the food. The amount and distribution of rest during the following 14 hours was then evaluated.

Structure (SMILES): COC(=O)C(c1ccccc1)C1CCCCN1 (stereo not shown) [methylphenidate]
- amount and distribution of rest: rest was significantly reduced compared to baseline; also recorded: significant and substantial decrease in rest
